Assay results: paper PMC6934184, “Selective DNA-PKcs inhibition extends the therapeutic index of localized radiotherapy and chemotherapy” (The Journal of Clinical Investigation, 2019)

Target: T1, EGFR (ErbB1) L858R (Homo sapiens, UniProt P00533, L858R)
T1 construct: purchased Thermo Fisher Scientific (Life Technologies) SelectScreen
Test: SelectScreen Z'LYTE
Format: biochemical
Procedure, shortened: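 Percent values come from Thermo SelectScreen profiling of NU5455, combining activity and binding assays. CSF1R was run in Z'LYTE format at Km app ATP, and CAMK1 in Adapta format with ATP listed at 10.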

T1 sequence (P00533 25-1210 L858R): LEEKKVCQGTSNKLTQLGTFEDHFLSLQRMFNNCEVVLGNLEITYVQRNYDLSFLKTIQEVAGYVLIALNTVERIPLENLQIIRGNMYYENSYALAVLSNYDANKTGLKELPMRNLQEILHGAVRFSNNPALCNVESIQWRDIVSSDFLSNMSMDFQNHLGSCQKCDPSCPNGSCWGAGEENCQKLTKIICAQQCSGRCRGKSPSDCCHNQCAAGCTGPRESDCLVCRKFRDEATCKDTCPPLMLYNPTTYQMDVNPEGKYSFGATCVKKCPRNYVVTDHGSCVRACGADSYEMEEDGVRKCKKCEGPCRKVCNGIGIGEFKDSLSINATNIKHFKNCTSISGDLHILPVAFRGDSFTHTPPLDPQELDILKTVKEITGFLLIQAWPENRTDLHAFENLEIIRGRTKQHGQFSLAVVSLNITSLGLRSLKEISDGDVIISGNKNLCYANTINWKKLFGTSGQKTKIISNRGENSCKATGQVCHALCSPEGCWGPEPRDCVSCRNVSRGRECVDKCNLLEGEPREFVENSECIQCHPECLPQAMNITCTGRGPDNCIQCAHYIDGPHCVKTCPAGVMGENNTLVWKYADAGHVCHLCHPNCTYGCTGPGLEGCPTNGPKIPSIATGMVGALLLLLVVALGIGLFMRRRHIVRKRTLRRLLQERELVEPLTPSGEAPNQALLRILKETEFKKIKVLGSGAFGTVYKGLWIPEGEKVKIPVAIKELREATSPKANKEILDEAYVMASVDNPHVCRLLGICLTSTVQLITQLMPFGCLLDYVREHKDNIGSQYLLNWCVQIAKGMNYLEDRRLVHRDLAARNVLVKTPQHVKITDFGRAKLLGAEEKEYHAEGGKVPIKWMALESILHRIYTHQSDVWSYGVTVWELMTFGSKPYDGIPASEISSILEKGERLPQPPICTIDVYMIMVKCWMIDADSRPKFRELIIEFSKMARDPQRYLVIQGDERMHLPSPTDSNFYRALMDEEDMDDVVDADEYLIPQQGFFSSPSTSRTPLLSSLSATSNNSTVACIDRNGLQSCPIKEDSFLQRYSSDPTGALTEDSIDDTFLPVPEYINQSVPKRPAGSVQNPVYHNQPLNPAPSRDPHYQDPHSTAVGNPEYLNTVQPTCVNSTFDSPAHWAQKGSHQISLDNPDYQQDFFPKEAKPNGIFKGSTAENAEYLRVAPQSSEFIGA

CN(C(=O)CN1CCOCC1)c1ccc2sc3c(-c4cccc5c(=O)cc(N6CC7CCC(C6)O7)oc45)cccc3c2c1 [NU5455]
inhibition at 1 µM: -15%
